Measured values reported in patent US20090099158A1, “TETRAHYDROISOQUINOLINE COMPOUNDS AS MODULATORS OF THE HISTAMINE H3 RECEPTOR” (priority 2007, published 2009).

Target: T1, cloned human H3 receptors (Homo sapiens, UniProt Q9Y5N1)
T1 construct: expressed in transfected cells; host or cells: SK-N-MC cells
Assay: H3 Receptor Binding (Human)
Details: cloned human H3 receptors stably expressed in SK-N-MC cells; average of the results obtained
Method: Binding of compounds to the cloned human H3 receptors, stably expressed in SK-N-MC cells, was performed as described by Barbier, A. J. et al. (Br. J. Pharmacol. 2004, 143(5), 649-661). Data for compounds tested in this assay are presented in Table 1 as an average of the results obtained.

T1 sequence (Q9Y5N1 whole entry): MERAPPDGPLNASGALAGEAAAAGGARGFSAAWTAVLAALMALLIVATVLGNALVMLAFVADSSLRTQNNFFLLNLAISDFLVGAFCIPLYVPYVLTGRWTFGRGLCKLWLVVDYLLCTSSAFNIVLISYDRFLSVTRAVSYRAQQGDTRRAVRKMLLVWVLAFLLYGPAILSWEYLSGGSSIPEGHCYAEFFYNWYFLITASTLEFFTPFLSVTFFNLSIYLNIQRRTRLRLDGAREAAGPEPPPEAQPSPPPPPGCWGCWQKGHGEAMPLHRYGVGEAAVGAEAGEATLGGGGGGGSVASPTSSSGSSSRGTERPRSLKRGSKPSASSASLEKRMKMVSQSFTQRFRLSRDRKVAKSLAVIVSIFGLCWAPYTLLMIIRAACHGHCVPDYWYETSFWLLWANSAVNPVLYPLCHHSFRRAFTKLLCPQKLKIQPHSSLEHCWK

Row | SMILES | Ki [nM]
1 | O=C(c1ccc2c(c1)CCN(C1CCC1)C2)N1CCCN(C2CCC2)CC1 [Example 189, (4-Cyclobutyl-[1,4]diazepan-1-yl)-(2-cyclobutyl-1,2,3,4-tetrahydro-isoquinolin-6-yl)-methanone] | 1
2 | O=C(c1ccc2c(c1)CCN(C(=O)C1CCCCC1)C2)N1CCN(CC2CCCO2)CC1 (centres unmarked) [Example 151, Cyclohexyl-{6-[4-(tetrahydro-furan-2-ylmethyl)-piperazine-1-carbonyl]-3,4-dihydro-1H-isoquinolin-2-yl}-methanone] | 5200
3 | O=C(c1ccc2c(c1)CCN(C(=O)c1ccccc1)C2)N1CCN(C2CCCCC2)CC1 [Example 85, (2-Benzoyl-1,2,3,4-tetrahydro-isoquinolin-6-yl)-(4-cyclohexyl-piperazin-1-yl)-methanone] | 118
4 | O=C(c1ccc2c(c1)CCN(Cc1ccc(C(F)(F)F)cc1)C2)N1CCN(C2CC2)CC1 [Example 23, (4-Cyclopropyl-piperazin-1-yl)-[2-(4-trifluoromethyl-benzyl)-1,2,3,4-tetrahydro-isoquinolin-6-yl]-methanone] | 114
5 | N#Cc1ccc(C(=O)N2CCc3cc(C(=O)N4CCC[C@H]4CN4CCCC4)ccc3C2)cc1 [Example 53, (S)-4-[6-(2-Pyrrolidin-1-ylmethyl-pyrrolidine-1-carbonyl)-3,4-dihydro-1H-isoquinoline-2-carbonyl]-benzonitrile] | 9
6 | O=C(c1ccc2c(c1)CCN(C(=O)C1CCCCC1)C2)N1CCN(C2CCCCC2)CC1 [Example 160, Cyclohexyl-[6-(4-cyclohexyl-piperazine-1-carbonyl)-3,4-dihydro-1H-isoquinolin-2-yl]-methanone] | 84
7 | CC(C)N1CCN(C(=O)c2ccc3c(c2)CCN(C(=O)c2ccsc2)C3)CC1 [Example 106, (4-Isopropyl-piperazin-1-yl)-[2-(thiophene-3-carbonyl)-1,2,34-tetrahydro-isoquinolin-6-yl]-methanone] | 17
8 | CCCN1CCc2cc(C(=O)N3CCC(C(C)(C)O)CC3)ccc2C1 [Example 184, [4-(1-Hydroxy-1-methyl-ethyl)-piperidin-1-yl]-(2-Propyl-1,2,3,4-tetrahydro-isoquinolin-6-yl)-methanone] | 4200
9 | O=C(c1ccc2c(c1)CCN(Cc1ccc(Cl)c(Cl)c1)C2)N1CCN(C2CCC2)CC1 [Example 16, (4-Cyclobutyl-piperazin-1-yl)-[2-(3,4-dichloro-benzyl)-1,2,3,4-tetrahydro-isoquinolin-6-yl]-methanone] | 18
10 | CCCN1CCc2cc(C(=O)N3CCC(C(C)(C)C)CC3)ccc2C1 [Example 182, (4-tert-Butyl-piperidin-1-yl)-(2-propyl-1,2,3,4-tetrahydro-isoquinolin-6-yl)-methanone] | 340
11 | CC(C)S(=O)(=O)N1CCc2cc(C(=O)N3CCN(C4CCC4)CC3)ccc2C1 [Example 102, (4-Cyclobutyl-piperazin-1-yl)-[2-(propane-2-sulfonyl)-1,2,3,4-tetrahydro-isoquinolin-6-yl]-methanone] | 25
12 | O=C(Cc1ccc(F)cc1)N1CCc2cc(C(=O)N3CCN(C4CCCC4)CC3)ccc2C1 [Example 71, 1-[6-(4-Cyclopentyl-piperazine-1-carbonyl)-3,4-dihydro-1H-isoquinolin-2-yl]-2-(4-fluoro-phenyl)-ethanone] | 48
13 | O=C(c1ccc2c(c1)CCNC2)N1CCCCC1 [Example 6, Piperidin-1-yl-(1,2,3,4-tetrahydro-isoquinolin-6-yl)-methanone] | 3000
14 | CN(C)[C@@H]1CCN(C(=O)c2ccc3c(c2)CCN(C(=O)C2CCCCC2)C3)C1 [Example 155, (R)-Cyclohexyl-[6-(3-dimethylamino-pyrrolidine-1-carbonyl)-3,4-dihydro-1H-isoquinolin-2-yl]-methanone] | 650
15 | O=C(c1cccc(Cl)c1)N1CCc2cc(C(=O)N3CCN4CCCCC4C3)ccc2C1 (centres unmarked) [Example 90, [2-(3-Chloro-benzoyl)-1,2,3,4-tetrahydro-isoquinolin-6-yl]-(octahydro-pyrido[1,2-a]pyrazin-2-yl)-methanone] | 19
16 | O=C(c1ccc2c(c1)CCN(C(=O)c1ccc(C3CCCCC3)cc1)C2)N1CCN(C2CCC2)CC1 [Example 132, (4-Cyclobutyl-piperazin-1-yl)-[2-(4-cyclohexyl-benzoyl)-1,2,3,4-tetrahydro-isoquinolin-6-yl]-methanone] | 100
17 | O=C(c1ccc2c(c1)CCN(C(=O)c1ccc(Cl)cc1)C2)N1CCN(C2CCCC2)CC1 [Example 69, [2-(4-Chloro-benzoyl)-1,2,3,4-tetrahydro-isoquinolin-6-yl]-(4-cyclopentyl-piperazin-1-yl)-methanone] | 91
18 | CC(C)(C)C(=O)N1CCc2cc(C(=O)N3CCN(C4CCC4)CC3)ccc2C1 [Example 41, 1-[6-(4-Cyclobutyl-piperazine-1-carbonyl)-3,4-dihydro-1H-isoquinolin-2-yl]-2,2-dimethyl-propan-1-one] | 15

Row | SMILES | Ki [nM]
19 | CCCc1ccc(C(=O)N2CCc3cc(C(=O)N4CCCN(C5CCC5)CC4)ccc3C2)cc1 [Example 140, [6-(4-Cyclobutyl-[1,4]diazepane-1-carbonyl)-3,4-dihydro-1H-isoquinolin-2-yl]-(4-propyl-phenyl)-methanone] | 2
20 | Cc1ccc(C(=O)N2CCc3cc(C(=O)N4CCN(C5CCC5)CC4)ccc3C2)cc1 [Example 113, (4-Cyclobutyl-piperazin-1-yl)-[2-(4-methyl-benzoyl)-1,2,3,4-tetrahydro-isoquinolin-6-yl]-methanone] | 22
21 | O=C(CC1CCCC1)N1CCc2cc(C(=O)N3CCN(C4CCC4)CC3)ccc2C1 [Example 43, 1-[6-(4-Cyclobutyl-piperazine-1-carbonyl)-3,4-dihydro-1H-isoquinolin-2-yl]-2-cyclopentyl-ethanone] | 20
22 | O=C(c1ccccc1Cl)N1CCc2cc(C(=O)N3CCC[C@H]3CN3CCCC3)ccc2C1 [Example 50, (S)-(2-Chloro-phenyl)-[6-(2-pyrrolidin-1-ylmethyl-pyrrolidine-1-carbonyl)-3,4-dihydro-1H-isoquinolin-2-yl]-methanone] | 12
23 | COc1ccc(C(=O)N2CCc3cc(C(=O)N4CCC[C@H]4CN4CCCC4)ccc3C2)cc1 [Example 60, (S)-(4-Methoxy-phenyl)-[6-(2-pyrrolidin-1-ylmethyl-pyrrolidine-1-carbonyl)-3,4-dihydro-1H-isoquinolin-2-yl]-methanone] | 21
24 | O=C(C1CCCCC1)N1CCc2cc(C(=O)N3C[C@@H]4C[C@H]3CN4C3CCC3)ccc2C1 [Example 164, (1S,4S)-(5-Cyclobutyl-2,5-diaza-bicyclo[2.2.1]hept-2-yl)-(2-cyclohexanecarbonyl-1,2,3,4-tetrahydro-isoquinolin-6-yl)-methanone] | 1150
25 | O=C(c1ccc2c(c1)CCN(C(=O)c1cccc([N+](=O)[O-])c1)C2)N1CCN(C2CCC2)CC1 [Example 121, [6-(4-Cyclobutyl-piperazine-1-carbonyl)-3,4-dihydro-1H-isoquinolin-2-yl]-(3-nitro-phenyl)-methanone] | 5
26 | O=C(c1ccc2c(c1)CCN(C(=O)c1ccoc1)C2)N1CCN(C2CCC2)CC1 [Example 44, [6-(4-Cyclobutyl-piperazine-1-carbonyl)-3,4-dihydro-1H-isoquinolin-2-yl]-furan-3-yl-methanone] | 19
27 | O=C(c1ccc2c(c1)CCN(C(=O)c1ccc(F)cc1F)C2)N1CCN(C2CCC2)CC1 [Example 126, (4-Cyclobutyl-piperazin-1-yl)-[2-(2,4-difluoro-benzoyl)-1,2,3,4-tetrahydro-isoquinolin-6-yl]-methanone] | 9
28 | CO[C@H]1CC[C@@H](C(=O)N2CCc3cc(C(=O)N4CCCN(C5CCC5)CC4)ccc3C2)CC1 [Example 148, cis-[6-(4-Cyclobutyl-[1,4]diazepane-1-carbonyl)-3,4-dihydro-1H-isoquinolin-2-yl]-(4-methoxy-cyclohexyl)-methanone] | 1
29 | O=C(c1ccc2c(c1)CCN(C(=O)C1CCCCC1)C2)N1CCN2CCCC2C1 (centres unmarked) [Example 153, Cyclohexyl-[6-(hexahydro-pyrrolo[1,2-a]pyrazine-2-carbonyl)-3,4-dihydro-1H-isoquinolin-2-yl]-methanone] | 54
30 | COC1CCCC(C(=O)N2CCc3cc(C(=O)N4CCCN(C5CCC5)CC4)ccc3C2)C1 (centres unmarked) [Example 146, [6-(4-Cyclobutyl-[1,4]diazepane-1-carbonyl)-3,4-dihydro-1H-isoquinolin-2-yl]-(3-methoxy-cyclohexyl)-methanone] | 1
31 | O=C(c1ccc2c(c1)CN(C(=O)C1CCCC1)CC2)N1CCCN(C2CCC2)CC1 [Example 37, [7-(4-Cyclobutyl-[1,4]diazepane-1-carbonyl)-3,4-dihydro-1H-isoquinolin-2-yl]-cyclopentyl-methanone] | 1
32 | CC(C)N1CCN(C(=O)c2ccc3c(c2)CCN(C(=O)c2ccc(O)cc2)C3)CC1 [Example 107, [2-(4-Hydroxy-benzoyl)-1,2,3,4-tetrahydro-isoquinolin-6-yl]-(4-isopropyl-piperazin-1-yl)-methanone] | 34
33 | O=C(c1ccccc1)N1CCc2cc(C(=O)N3CCN4CCCCC4C3)ccc2C1 (centres unmarked) [Example 99, (2-Benzoyl-1,2,3,4-tetrahydro-isoquinolin-6-yl)-(octahydro-pyrido[1,2-a]pyrazin-2-yl)-methanone] | 20
34 | O=C(c1cccc(F)c1)N1CCc2cc(C(=O)N3CCC[C@H]3CN3CCCC3)ccc2C1 [Example 57, (S)-(3-Fluoro-phenyl)-[6-(2-pyrrolidin-1-ylmethyl-pyrrolidine-1-carbonyl)-3,4-dihydro-1H-isoquinolin-2-yl]-methanone] | 14
35 | COc1ccccc1C(=O)N1CCc2cc(C(=O)N3CCN4CCCCC4C3)ccc2C1 (centres unmarked) [Example 92, [2-(2-Methoxy-benzoyl)-1,2,3,4-tetrahydro-isoquinolin-6-yl]-(octahydro-pyrido[1,2-a]pyrazin-2-yl)-methanone] | 23
